{"source": "patent US12655113B2", "about": "“Biphenyl compounds as SOCE modulators, compositions and uses thereof” (Università degli Studi del Piemonte Orientale “Amedeo …, priority 2020, dated 2026)", "key": {"[1]": {"tested_on": "tBHQ-induced calcium influx into Hek cells (SOCE)", "experiment": "Store-operated calcium entry (SOCE) by Fura-2 Ca2+ measurements in Hek cells", "format": "cell-based, Human", "settings": "for Calcium response to SOCE-modulators (regulation of SOCE): FIG. 2A, HEK cells, stores depleted with 50 μM tBHQ, compound added with 2 mM Ca2+"}, "[2]": {"tested_on": "SOCE in myotubes from KI-STIM1I115F mice (STIM1 mutated protein)", "experiment": "Pharmacological modulation of SOCE in myotubes from KI-STIM1 I115F mice", "format": "cell-based, mouse", "settings": "FIG. 4", "experimental": "Wild-type and KI-STIM1^I115F primary myoblast were obtained from the following muscles: gastrocnemius, tibialis anterior, quadriceps femoris, extensor digitorum longus, soleus, biceps brachii and diaphragm. Each muscle was placed in a 60 mm dish in phosphate-buffered saline (PBS), removed from the tendon and separated longitudinally and subsequently chopped into smaller pieces. The small fragments were incubated with Pronase® (Protease, Streptomyces griseus, Calbiochem®, 25 KU) for 1 hour at 37° C. in shaking and neutralized with Dulbecco's Modified Eagle's Medium (DMEM, Sigma-Aldrich, Italy), supplemented with 10% heat-inactivated FCS (Gibco, Italy), L-glutamine 50 mg/mL (Sigma-Aldrich, Italy), penicillin 10 U/mL and streptomycin […] (Sigma-Aldrich, Italy), and 1% chicken embryo extract (Sigma-Aldrich, Italy). Tissues were then chopped into smaller pieces passing through pipets of 10 and 5 mL and the supernatant obtained was filtered in 40 μm strainer and centrifuge at RT for 10 minutes at 1200 rpm. […]\nMyotubes were generated from 4 animals in each condition. We also analysed whether SOCE in WT myotubes was modified during the lifespan of these animals. […]"}, "[3]": {"tested_on": "SOCE in myotubes from mdx mice", "experiment": "Pharmacological modulation of SOCE in myotubes of DMD mouse model (mdx)", "format": "cell-based", "settings": "FIG. 6; for over-activation of SOCE in DMD mouse model (DMD mutated protein): myotubes from mdx mice", "experimental": "Myotubes were generated from 4 animals in each condition. We analysed whether SOCE is increased in myotubes from mxd mice as compared to myotubes from WT mice. To do this, we employed a classical protocol for Ca^2+-entry, in which stores are depleted with tBHQ in a Ca^2+-free buffer and after 10 minutes cells are perfused in a Ca^2+-containing solution (2 mM).\nMyotubes from 4 wild type (WT) and 4 mdx mice were loaded with 5 μM Fura-2 AM and placed in an extracellular solution containing 0 mM Ca^2+. Stores were depleted with 50 μM tBHQ and after 10 minutes cells are perfused in a Ca^2+-containing solution (2 mM) in presence or absence of the selected compound (3-(1-(3-methoxy-[1,1-biphenyl]-4-yl)-1H-1,2,3-triazol-4-yl)benzoic acid)."}, "[4]": {"settings": "Homo sapiens, HEK293, Hek cells"}, "[5]": {"settings": "Homo sapiens, HEK293, Hek cells, 3 μM"}}, "data": [{"smiles": "CSc1cccc(-c2ccc(-n3cc(-c4cccc(C(=O)O)c4)nn3)cc2)c1", "note": "[Compound 11, 3-(1-(3′-(methylthio)-[1,1′-biphenyl]-4-yl)-1H-1,2,3-triazol-4-yl)benzoic acid]", "values": [{"measurement": "inhibition at 10 µM", "setting": "[1]; [4]", "result": "72.6 ± 13.6", "unit": "%"}]}, {"smiles": "COc1ccccc1-c1ccc(-n2cc(-c3cccc(C(=O)O)c3)nn2)cc1", "note": "[Compound 12, 3-(1-(2′-methoxy-[1,1′-biphenyl]-4-yl)-1H-1,2,3-triazol-4-yl)benzoic acid]", "values": [{"measurement": "inhibition at 10 µM", "setting": "[1]; [4]", "result": "47.2 ± 7.2", "unit": "%"}]}, {"smiles": "COc1cccc(-c2ccc(-n3cc(-c4cccc(C(=O)O)c4)nn3)cc2)c1", "note": "[Compound 13, 3-(1-(3′-Methoxy-[1,1′-biphenyl]-4-yl)-1H-1,2,3-triazol-4-yl)benzoic acid]", "values": [{"measurement": "Calcium response to SOCE-modulators (regulation of SOCE)", "setting": "[1]", "result": "negatively regulate SOCE"}, {"measurement": "inhibition at 3 µM", "setting": "[1]; [5]", "result": "85 ± 9", "unit": "%"}, {"measurement": "over-activation of STIM1 mutated protein", "setting": "[2]", "result": "able to revert the over-activation of STIM1 mutated protein"}, {"measurement": "SOCE in myotubes from mdx mice", "setting": "[3]; 10 μM", "result": "impairs SOCE"}, {"measurement": "over-activation of SOCE in DMD mouse model (DMD mutated protein)", "setting": "[3]", "result": "able to revert the over-activation of DMD mutated protein"}]}, {"smiles": "COc1ccc(-c2ccc(-n3cc(-c4cccc(C(=O)O)c4)nn3)cc2)c(OC)c1", "note": "[Compound 15, 3-(1-(2′,4′-dimethoxy-[1,1′-biphenyl]-4-yl)-1H-1,2,3-triazol-4-yl)benzoic acid]", "values": [{"measurement": "inhibition at 10 µM", "setting": "[1]; [4]", "result": "68.1 ± 4.2", "unit": "%"}]}, {"smiles": "COc1cc(OC)cc(-c2ccc(-n3cc(-c4cccc(C(=O)O)c4)nn3)cc2)c1", "note": "[Compound 16, 3-(1-(3′,5′-dimethoxy-[1,1′-biphenyl]-4-yl)-1H-1,2,3-triazol-4-yl)benzoic acid]", "values": [{"measurement": "inhibition at 10 µM", "setting": "[1]; [4]", "result": "77.4 ± 4.7", "unit": "%"}]}, {"smiles": "O=C(O)c1cccc(-c2cn(-c3ccc(-c4ccc5c(c4)OCO5)cc3)nn2)c1", "note": "[Compound 17, 3-(1-(4-(benzo[d][1,3]dioxol-5-yl)phenyl)-1H-1,2,3-triazol-4-yl)benzoic acid]", "values": [{"measurement": "inhibition at 10 µM", "setting": "[1]; [4]", "result": "37.3 ± 4.2", "unit": "%"}]}, {"smiles": "O=C(O)c1cccc(-c2cn(-c3ccc(-c4ccc5c(c4)OCCO5)cc3)nn2)c1", "note": "[Compound 18, 3-(1-(4-(2,3-dihydrobenzo[b][1,4]dioxin-6-yl)phenyl)-1H-1,2,3-triazol-4-yl)benzoic acid]", "values": [{"measurement": "Calcium response to SOCE-modulators (regulation of SOCE)", "setting": "[1]", "result": "negatively regulate SOCE"}, {"measurement": "inhibition at 10 µM", "setting": "[1]; [4]", "result": "82.7 ± 4", "unit": "%"}, {"measurement": "over-activation of STIM1 mutated protein", "setting": "[2]", "result": "able to revert the over-activation of STIM1 mutated proteins"}, {"measurement": "over-activation of SOCE in DMD mouse model (DMD mutated protein)", "setting": "[3]", "result": "able to revert the over-activation of SOCE in DMD mouse model"}]}, {"smiles": "COc1cccc(-c2ccc(-n3cc(-c4cccc(C(=O)O)c4)nn3)cc2)c1OC", "note": "[Compound 20, 3-(1-(2′,3′-dimethoxy-[1,1′-biphenyl]-4-yl)-1H-1,2,3-triazol-4-yl)benzoic acid]", "values": [{"measurement": "Calcium response to SOCE-modulators (regulation of SOCE)", "setting": "[1]", "result": "negatively regulate SOCE"}]}, {"smiles": "COc1ccc(OC)c(-c2ccc(-n3cc(-c4cccc(C(=O)O)c4)nn3)cc2)c1", "note": "[Compound 24, 3-(1-(2′,5′-dimethoxy-[1,1′-biphenyl]-4-yl)-1H-1,2,3-triazol-4-yl)benzoic acid]", "values": [{"measurement": "inhibition at 3 µM", "setting": "[1]; [5]", "result": "85.8 ± 6.5", "unit": "%"}]}, {"smiles": "COc1ccc(OC)c(-c2ccc(-n3cc(-c4ccnc(C(=O)O)c4)nn3)cc2)c1", "note": "[Compound 25, 4-(1-(2′,5′-dimethoxy-[1,1′-biphenyl]-4-yl)-1H-1,2,3-triazol-4-yl)picolinic acid]", "values": [{"measurement": "inhibition at 10 µM", "setting": "[1]; [4]", "result": "79.9 ± 4.1", "unit": "%"}]}, {"smiles": "COc1ccc(OC)c(-c2ccc(-n3cc(-c4ccncc4F)nn3)cc2)c1", "note": "[Compound 26, 4-(1-(2′,5′-dimethoxy-[1,1′-biphenyl]-4-yl)-1H-1,2,3-triazol-4-yl)-3-fluoropyridine]", "values": [{"measurement": "Calcium response to SOCE-modulators (regulation of SOCE)", "setting": "[1]", "result": "no activity"}]}, {"smiles": "COc1ccccc1-c1ccc(-c2cn(-c3cccc(C(=O)O)c3)nn2)cc1", "note": "[Compound 35, 3-(4-(2′-methoxy-[1,1′-biphenyl]-4-yl)-1H-1,2,3-triazol-1-yl)benzoic acid]", "values": [{"measurement": "inhibition at 10 µM", "setting": "[1]; [4]", "result": "59.6 ± 5.43", "unit": "%"}]}, {"smiles": "COc1cccc(-c2ccc(-c3cn(-c4cccc(C(=O)O)c4)nn3)cc2)c1", "note": "[Compound 36, 3-(4-(3′-methoxy-[1,1′-biphenyl]-4-yl)-1H-1,2,3-triazol-1-yl)benzoic acid]", "values": [{"measurement": "inhibition at 10 µM", "setting": "[1]; [4]", "result": "87 ± 1.1", "unit": "%"}]}, {"smiles": "COc1ccc(-c2ccc(-c3cn(-c4cccc(C(=O)O)c4)nn3)cc2)c(OC)c1", "note": "[Compound 37, 3-(4-(2′,4′-dimethoxy-[1,1′-biphenyl]-4-yl)-1H-1,2,3-triazol-1-yl)benzoic acid]", "values": [{"measurement": "inhibition at 10 µM", "setting": "[1]; [4]", "result": "77.1 ± 0.9", "unit": "%"}]}, {"smiles": "COc1cc(OC)cc(-c2ccc(-c3cn(-c4cccc(C(=O)O)c4)nn3)cc2)c1", "note": "[Compound 38, 3-(4-(3′,5′-dimethoxy-[1,1′-biphenyl]-4-yl)-1H-1,2,3-triazol-1-yl)benzoic acid]", "values": [{"measurement": "inhibition at 10 µM", "setting": "[1]; [4]", "result": "86.2 ± 4.2", "unit": "%"}]}, {"smiles": "COc1cccc(-c2ccc(-c3cn(-c4cccc(C(=O)O)c4)nn3)cc2)c1OC", "note": "[Compound 42, 3-(4-(2′,3′-dimethoxy-[1,1′-biphenyl]-4-yl)-1H-1,2,3-triazol-1-yl)benzoic acid]", "values": [{"measurement": "inhibition at 3 µM", "setting": "[1]; [5]", "result": "93.2 ± 5.1", "unit": "%"}]}, {"smiles": "COc1cccc(OC)c1-c1ccc(-c2cn(-c3cccc(C(=O)O)c3)nn2)cc1", "note": "[Compound 44, 3-(4-(2′,6′-dimethoxy-[1,1′-biphenyl]-4-yl)-1H-1,2,3-triazol-1-yl)benzoic acid]", "values": [{"measurement": "activity at 3 µM", "setting": "[1]; Homo sapiens, HEK293, Hek cells, 3 μM, read-out: Residual activity of SOCE", "result": "122.8 ± 0.89", "unit": "%"}]}, {"smiles": "COc1ccc(OC)c(-c2ccc(-c3cn(-c4cccc(C(=O)O)c4)nn3)cc2)c1", "note": "[Compound 46, 3-(4-(2′,5′-dimethoxy-[1,1′-biphenyl]-4-yl)-1H-1,2,3-triazol-1-yl)benzoic acid]", "values": [{"measurement": "inhibition at 3 µM", "setting": "[1]; [5]", "result": "78.7 ± 3.8", "unit": "%"}, {"measurement": "inhibition at 10 µM", "setting": "[1]; [4]", "result": "87.8 ± 2.9", "unit": "%"}]}, {"smiles": "COC(=O)c1cc(-n2cc(-c3ccc(-c4cc(OC)ccc4OC)cc3)nn2)ccn1", "note": "[Compound 47, methyl 4-(4-(2′,5′-dimethoxy-[1,1′-biphenyl]-4-yl)-1H-1,2,3-triazol-1-yl)picolinate]", "values": [{"measurement": "inhibition at 10 µM", "setting": "[1]; [4]", "result": "73.5 ± 1.4", "unit": "%"}]}]}
